Measurements: paper PMC9268516 (Molecules, 2022)

How the values were obtained:
in vitro = details: Rhesus monkey
RAW 264.7 cells = details: cited from earlier work
H1N1 = details: cited from earlier work
chemokine co-receptor 5 = details: cited from earlier work
influenza A/WSN/33 virus = details: cited from earlier work

## CC(C)/C=c1/c(=O)[nH]/c(=C\c2ccccc2)c(=O)n1C [Compound 13d, (3Z,6Z)-3-Benzylidene-6-(2-methylpropylidene)-1-methyl-2,5-diketopiperazine]
In vitro
  IC50: > 128 µg/mL

## CC(C)C=c1c(=O)[nH]c(=Cc2ccccc2)c(=O)n1CCN1CCCC1 [Compound 14c, (3Z,6E)-3-Benzylidene-6-(2-methylpropylidene)-1-(1-ethylpyrrolidine)-2,5-diketopiperazine]
other
  melting point: 158 to 162 °C
In vitro
  IC50: > 128 µg/mL

## CC(C)/C=c1\c(=O)[nH]/c(=C/c2ccccc2)c(=O)n1C [LS-D, reference compound]
RAW 264.7 cells
  anti-inflammatory effect: anti-inflammatory effect
In vitro
  IC50: > 128 µg/mL

## CC(C)/C=c1\c(=O)n(O)/c(=C/c2ccccc2)c(=O)n1C [LS-C, reference compound]
RAW 264.7 cells
  anti-inflammatory effect: anti-inflammatory effect
In vitro
  IC50: > 128 µg/mL

## CC(C)/C=c1\[nH]c(=O)/c(=C/c2ccccc2)[nH]c1=O [Compound 13f, (3Z,6Z)-3-Benzylidene-6-(2-methylpropylidene)-2,5-diketopiperazine]
H1N1
  IC50: 41.5 ± 4.5 µM
other
  melting point: 243 to 246 °C

## C=CCn1c(=O)/c(=C/C(C)C)[nH]c(=O)/c1=C/c1ccccc1 [Compound 13b, (3Z,6Z)-4-Allyl-3-benzylidene-6-(2-methylpropylidene)-2,5-diketopiperazine]
In vitro
  IC50: > 128 µg/mL

## C=CCn1c(=O)/c(=C/c2ccccc2)[nH]c(=O)/c1=C/C(C)C [Compound 13e, (3Z,6Z)-1-Allyl-3-benzylidene-6-(2-methylpropylidene)-2,5-diketopiperazine]
other
  melting point: 115 to 119 °C

## CC(C)=CCn1c(=O)/c(=C/C(C)C)[nH]c(=O)/c1=C/c1ccccc1 [Compound 13c, (3Z,6Z)-3-Benzylidene-6-(2-methylpropylidene)-4-(3-methylbut-2-en-1-yl)-2,5-diketopiperazine]
other
  melting point: 175 to 178 °C
In vitro
  IC50: > 128 µg/mL

## CCCCN1C(=O)[C@@H]([C@H](O)C2CCCCC2)NC(=O)C12CCN(Cc1ccc(Oc3ccc(C(=O)O)cc3)cc1)CC2 [Aplaviroc]
Chemokine co-receptor 5
  binding affinity to chemokine co-receptor 5: high binding affinity

## C=CC(C)(C)c1[nH]c2ccccc2c1/C=c1\[nH]c(=O)c(=C)[nH]c1=O [Neoechinulin B]
Influenza A/WSN/33 virus
  inhibitory rate: 70.48%

## CC(C)/C=c1\[nH]c(=O)/c(=C/c2ccc(O)cc2)[nH]c1=O [(3Z,6Z)-3-(4-hydroxybenzylidene)-6-isobutylidenepiperazine-2,5-dione, reference compound]
H1N1
  IC50: 6.8 ± 1.5 µM
